Source: patent publication US20060068496A1, “Differentiation of stem cells” (priority 2004, published 2006)

Key:
Assay type in all cases: cell-based, human
ACTHep1-6 = assay: Reversal of transformation of ACTHep1-6 by ponasterone A induced dominant negative RAS; conditions: 10 μM ponasterone A in Med3, 5% serum, 10,000 cells per well
From the text: Identification of a human hepatocyte cell line starting from human EG cells using sequential expression of an activated and a dominant negative transforming gene can be performed as follows. Human EG cells can be transfected with a construct containing the human hepatitis B virus core promoter/enhancer (SEQ ID NO:1) driving an activated H-RAS gene (SEQ ID NO:2) and also optionally containing an ecdysone inducible gene switch promoter (SEQ ID NO:3) driving a dominant negative H-RAS gene (SEQ ID NO:4) (Sandig et al., (1996) Gene Therapy 3, 1002-1009; Saez et al., (2000) Proc. Natl. Acad. Sci. 97, 14512-14517). The activated H-RAS can be transcribed after differentiation of the EG cells. Transformed hepatocytes can be isolated in soft agar, cloned, expanded and frozen. Cultures can be plated at low density then treated with ponasterone A to induce the dominant negative RAS and reverse transformation. Cells are expected to arrest growth at subconfluent densities. Their identity as hepatocytes can be confirmed by production of albumin, cyp1A and cyp3A.
ACTHep1-6 can be further characterized. Individual vials can be thawed and plated in Med3, 5% serum as described above. Cells can be expanded, then plated at a density of 10,000 cells per well in a 96 well plate. […] Cells are selected having the cuboidal appearance of hepatocytes with a prominent nucleus. […]

Hay1 [1] = assay: Zeocin sensitivity of Hay1 (standard titration curve, selection)
Description: In preparation for the establishment of the frt insert line, the sensitivity of Hay1 to zeocin was tested.
The plasmid pFrt/lac/Zeo (Invitrogen) can be transfected into Hay1 using Lipofectamine 2000. After 48 hrs, resistant cells can be selected by changing to medium containing 75 μg/ml Zeocin (Invitrogen). Non-resistant cells are dead in about seven days. An efficiency of about 1×10^−5/μg is expected. Approximately ten individual transfectants can be selected and tested for expression of lacZ. Copy number of the plasmid can be evaluated via Southern blotting. Transfectants with single insertions can be chosen for further analysis. To examine the behavior of the insert during differentiation, cells can be subjected to EB formation, followed by culture in Med3, 5% defined calf serum for one week. They can be reevaluated for lacZ expression. Since Zeo selection can be maintained, it is expected that all surviving cells will retain lacZ expression. It is a general strategy to maintain selective pressure on the inserts to insure expression of the surrounding DNA, as has been successfully employed in a number of other studies (Zweigerdt et al., (2001) Cytotherapy 5, 399-413; Liu et al. (2004) Stem Cells Dev. 13, 636-645; Schuldiner et al., (2003) Stem Cells 21, 257-265).

Hay1 [2] = assay: Growth of Hay1 in defined medium after removal of individual peptide hormone factors; conditions: for effect on growth of removal of the factor from the medium: Hay1, defined feeder free medium, factor removed individually
Description: The use of feeder layers complicates the use of stem cells for a variety of applications. Use of feeder layers dramatically raise the background in standard in vitro toxicology assays, such as MTT or resazurin reductions confounding the results. Hay1 can be grown routinely under defined conditions. Standard medium consists of KO-DMEM, 15% KO-serum replacement, glutamine, nonessential amino acids, β-MeSH, 10 ng/ml oncostatin M, 10 ng/ml SCF and 25 ng/ml bFGF. Using this medium, Hay1 continues to express the markers listed above and doubles approximately every three to four days. This is slightly slower than their doubling on feeder layers.
Growth of Hay1 was examined under various conditions known to affect stem cell growth and differentiation. Mouse and human EG cells require a source of gp130 signaling for growth in culture (Shamblott et al. (1998); Koshimuzu et al. (1996) Development 122, 1235-1242).
(§1) Since Oct 4 controls Nanog expression (Rodda et al. (2005)), it was expected that induction of Oct 4 would also raise nanog, and this is what was observed.

Oct 4 and Nanog = Oct 4 and Nanog expression in Hay1 by real time RT-QPCR
From the text: While surface markers and alkaline phosphatase are convenient markers for stem cells, it has become clear that expression of the transcription factors Oct 4 and Nanog are fundamental characteristics of stem cells (Rodda et al. (2005) J. Biol. Chem. 280, 24731-24737; Chambers et al. (2003) Cell 113, 643-655). Hay1 was examined for expression of these factors using real time RT-QPCR. […] Biomol. Screen. 5, 249-254), a medium that is a mixture of Weymouth's MAB, Ham's F12 and William's E. It also contains 5% defined calf serum (Hyclone). Actin was used as a standard.
as §1

[3] = Hay1, FGF replaced after withdrawal

CC(C)CC[C@@H](O)[C@](C)(O)[C@H]1CC[C@@]2(O)C3=CC(=O)[C@@H]4C[C@@H](O)[C@@H](O)C[C@]4(C)[C@H]3CC[C@]12C [ponasterone A]
growth of cells after addition of ponasterone A (ACTHep1-6): stop growing over the next 24 hours and arrest at subconfluent densities

Cc1c(N)nc([C@H](CC(N)=O)NC[C@H](N)C(N)=O)nc1C(=O)N[C@H](C(=O)N[C@H](C)[C@@H](O)[C@H](C)C(=O)N[C@H](C(=O)NCCC1=N[C@@H](c2nc(C(=O)NCCCCN=C(N)N)cs2)CS1)[C@@H](C)O)[C@@H](O[C@@H]1O[C@@H](CO)[C@@H](O)[C@H](O)[C@@H]1O[C@H]1O[C@H](CO)[C@@H](O)[C@H](OC(N)=O)[C@@H]1O)c1cnc[nH]1 [zeocin]
effective selection concentration (Hay1 [1]; Hay1, standard titration curve): 75 µg/mL
time until non-resistant cells are dead (Hay1 [1]; Hay1 transfected with pFrt/lac/Zeo, medium containing 75 μg/ml Zeocin): about seven

human Stem Cell Factor [SCF]
effect on growth of removal of the factor from the medium (Hay1 [2]): some effect on growth

human basic Fibroblast Growth Factor [FGF]
effect on growth of removal of the factor from the medium (Hay1 [2]): slight negative effect on growth
effect on growth of removal of the factor from the medium (Hay1 [2]; listed as bFGF): some effect on growth
effect on morphology of removal of the factor (Hay1 [2]; Hay1, defined medium, FGF removed): flatter and more spread out on the dish
Nanog expression after replacement of FGF (Oct 4 and Nanog; [3]): raise nanog
Oct 4 expression after replacement of FGF (Oct 4 and Nanog; [3]): returned Oct 4 expression to its former level
Oct 4 and Nanog expression after FGF withdrawal (Oct 4 and Nanog; Hay1, FGF withdrawn): dramatic reduction in expression

oncostatin M
effect on growth of removal of the factor from the medium (Hay1 [2]): completely arrested the growth
effect on growth of removal of the factor from the medium (Hay1 [2]; listed as Onc M): some effect on growth
alkaline phosphatase status of cultures after removal of the factor (Hay1 [2]; Hay1, defined medium, factor removed): alkaline phosphatase negative within several days
